Values after ≈ are worked out from the molar mass of the structure shown.
Tested on: P. aeruginosa 26
Assay: In vitro antibacterial activity, MIC by the two-fold agar-plate dilution method
Type: cell-based
Conditions: Pseudomonas aeruginosa, heart infusion agar, 37° C., 20 hours, overnight culture 10^8 viable cells per ml, read-out: MIC (minimal inhibitory concentration)
Description: Now in order to show the utility of the object compound (I), the test data on MIC (minimal inhibitory concentration) of representative compound of this invention are shown in the following.
In vitro antibacterial activity was determined by the two-fold agar-plate dilution method as described below.
One loopful of an overnight culture of each test strain in Trypticase-soy broth (10^8 viable cells per ml) was streaked on heart infusion agar (HI-agar)containing graded concentrations of representative test compound, and the minimal inhibitory concentration (MIC) was expressed in terms of μg/ml after incubation at 37° C. for 20 hours.

| Structure (SMILES) | MIC |
| --- | --- |
| CO/N=C(\C(=O)N[C@@H]1C(=O)N2C(C(=O)[O-])=C(C[N+]3(C)CCN(C(=O)c4cc(O)c(O)cn4)CC3)CS[C@H]12)c1nsc(N)n1 [Test compound (2), 7β-[2-(5-Amino-1,2,4-thiadiazol-3-yl)-2-methoxyiminoacetamido]-3-[1-methyl-4-(4,5-dihydroxy-2-pyridylcarbonyl)-1-piperazinio]methyl-3-cephem-4-carboxylate (syn isomer)] | 0.05 µg/mL (≈ 0.0789 µM) |
| CC(C)(O/N=C(\C(=O)N[C@@H]1C(=O)N2C(C(=O)[O-])=C(C[N+](C)(C)Cc3cc(=O)c(O)c[nH]3)CS[C@H]12)c1nsc(N)n1)C(=O)O [Test compound (1), 7β-[2-(5-Amino-1,2,4-thiadiazol-3-yl)-2-(1-carboxy-1-methylethoxyimino)acetamido]-3-[N,N-dimethyl-N-{(5-hydroxy-4-oxo-1,4-dihydropyridin-2-yl)methyl}ammonio]methyl-3-cephem-4-carboxylate (syn isomer)] | ≤ 0.025 µg/mL |

— patent US5401734A, “Cephem compounds” (Fujisawa Phamaceutical Co., Ltd., priority 1988, dated 1995)
